Results: patent US10844051B2, “Substituted oxazoles for the treatment of cancer” (THE ROYAL INSTITUTION FOR THE ADCANCEMENT OF …, priority 2015, dated 2020)

Columns and labels:
Type in all cases: cell-based
ETV1 = target: T1, ETV1 (Homo sapiens, UniProt P50549); test: ETV1-dependent reporter assay in HEK293 cells; details: 48 hours
T1 construct: expressed in transfected cells; host or cells: HEK293
T1 sequence (P50549 1-477): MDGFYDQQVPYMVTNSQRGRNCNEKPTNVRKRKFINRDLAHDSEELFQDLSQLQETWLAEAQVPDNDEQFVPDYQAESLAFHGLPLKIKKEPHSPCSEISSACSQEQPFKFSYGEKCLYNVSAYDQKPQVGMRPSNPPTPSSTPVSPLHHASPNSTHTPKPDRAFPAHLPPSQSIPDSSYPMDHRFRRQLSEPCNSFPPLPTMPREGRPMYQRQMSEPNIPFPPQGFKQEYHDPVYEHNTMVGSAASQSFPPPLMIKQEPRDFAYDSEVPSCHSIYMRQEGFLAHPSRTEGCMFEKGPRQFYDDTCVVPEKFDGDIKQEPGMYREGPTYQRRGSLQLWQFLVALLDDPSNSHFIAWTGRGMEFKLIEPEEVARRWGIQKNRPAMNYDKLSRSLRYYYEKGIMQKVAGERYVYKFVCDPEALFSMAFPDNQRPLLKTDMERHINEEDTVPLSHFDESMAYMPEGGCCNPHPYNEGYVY
Procedure: (§1) HEK293 cells were transiently transfected with empty vector (for the NT) or ERG-expressing plasmid as well as pRL-TK (internal control) and PUx3-Luc reporter. Cells were then exposed to DMSO vehicle or compounds at designated doses for 48 hours. Experiments were done in triplicate.
Experiments were done as described above in FIG. 1.1a) except that ERG plasmid was replaced by ETV1 plasmid.

ERG = target: T2, ERG (Homo sapiens, UniProt P11308); test: ERG-dependent reporter assay in HEK293 cells; set-up: expressed in transfected cells; host or cells: HEK293; details: PUx3-Luc reporter, 48 hours, designated doses
T2 sequence (P11308 1-486 isoform P11308-3): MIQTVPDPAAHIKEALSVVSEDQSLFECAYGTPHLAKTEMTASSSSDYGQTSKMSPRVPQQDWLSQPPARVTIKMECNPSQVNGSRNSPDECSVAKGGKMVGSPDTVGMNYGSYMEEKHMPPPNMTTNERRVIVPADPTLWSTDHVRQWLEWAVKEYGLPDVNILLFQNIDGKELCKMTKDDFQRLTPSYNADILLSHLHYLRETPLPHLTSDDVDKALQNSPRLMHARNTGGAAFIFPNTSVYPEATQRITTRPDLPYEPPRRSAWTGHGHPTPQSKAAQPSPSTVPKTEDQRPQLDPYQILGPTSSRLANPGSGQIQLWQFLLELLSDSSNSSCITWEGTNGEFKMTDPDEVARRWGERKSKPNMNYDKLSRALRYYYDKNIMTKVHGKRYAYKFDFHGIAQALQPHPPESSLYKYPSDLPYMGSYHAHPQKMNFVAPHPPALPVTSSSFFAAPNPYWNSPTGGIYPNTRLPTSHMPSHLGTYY
Procedure: as §1

human STING (hSTING) = target: T3, human STING (hSTING) (Homo sapiens, UniProt Q86WV6); test: hSTING ISRE-luc reporter assay in 293T cells; details: 24 hours
T3 construct: expressed in transfected cells; host or cells: 293T
T3 sequence (Q86WV6 whole entry H232R): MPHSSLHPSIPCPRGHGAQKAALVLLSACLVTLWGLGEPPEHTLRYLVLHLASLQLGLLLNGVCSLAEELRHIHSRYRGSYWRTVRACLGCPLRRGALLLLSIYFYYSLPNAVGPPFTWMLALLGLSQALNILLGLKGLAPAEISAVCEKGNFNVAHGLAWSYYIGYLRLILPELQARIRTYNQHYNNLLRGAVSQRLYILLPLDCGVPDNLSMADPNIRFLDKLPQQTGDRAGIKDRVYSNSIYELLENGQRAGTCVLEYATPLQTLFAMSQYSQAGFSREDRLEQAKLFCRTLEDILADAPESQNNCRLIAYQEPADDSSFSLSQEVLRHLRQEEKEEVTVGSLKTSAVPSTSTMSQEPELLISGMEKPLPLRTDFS
Procedure: ISRE-luc (reporter), pRL-TK (internal control) and hSTING-expressing plasmids were transiently transfected into 293T cells. Cells were exposed to DMSO vehicle control or compounds for 24 hours. Experiments were done in triplicate.

human GATA2 = target: T4, human GATA2 (Homo sapiens, UniProt P23769); test: GATA2-dependent reporter assay in IHH cells; details: GATA-Luc reporter, 48 h
T4 construct: expressed in transfected cells; host or cells: IHH
T4 sequence (P23769 1-480): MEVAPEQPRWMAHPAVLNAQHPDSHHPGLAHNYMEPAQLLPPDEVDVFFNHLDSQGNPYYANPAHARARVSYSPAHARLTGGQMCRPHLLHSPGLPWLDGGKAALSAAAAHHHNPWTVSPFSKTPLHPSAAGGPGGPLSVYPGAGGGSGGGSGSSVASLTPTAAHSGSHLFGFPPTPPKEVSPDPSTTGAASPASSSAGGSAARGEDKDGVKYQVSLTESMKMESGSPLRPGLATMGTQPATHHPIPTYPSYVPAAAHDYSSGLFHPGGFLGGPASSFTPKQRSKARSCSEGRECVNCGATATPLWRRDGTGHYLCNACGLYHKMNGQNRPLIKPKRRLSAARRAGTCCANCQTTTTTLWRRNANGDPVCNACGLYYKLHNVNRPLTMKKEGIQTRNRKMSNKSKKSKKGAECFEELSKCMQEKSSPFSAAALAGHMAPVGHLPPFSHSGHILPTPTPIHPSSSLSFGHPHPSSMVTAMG
Procedure: K7174 is a known GATA2 inhibitor. The IHH cells were transiently transfected with empty vector (for the NT) or human GATA2-expressing plasmid as well as pRL-TK (internal control) and GATA-Luc reporter plasmids. Cells were exposed to DMSO vehicle or compounds for 48 h. Experiments were in triplicate.

human GATA3 = target: T5, human GATA3 (Homo sapiens, UniProt P23771); test: GATA3-dependent reporter assay in IHH cells; details: 48 hours
T5 construct: expressed in transfected cells; host or cells: IHH
T5 sequence (P23771 whole entry): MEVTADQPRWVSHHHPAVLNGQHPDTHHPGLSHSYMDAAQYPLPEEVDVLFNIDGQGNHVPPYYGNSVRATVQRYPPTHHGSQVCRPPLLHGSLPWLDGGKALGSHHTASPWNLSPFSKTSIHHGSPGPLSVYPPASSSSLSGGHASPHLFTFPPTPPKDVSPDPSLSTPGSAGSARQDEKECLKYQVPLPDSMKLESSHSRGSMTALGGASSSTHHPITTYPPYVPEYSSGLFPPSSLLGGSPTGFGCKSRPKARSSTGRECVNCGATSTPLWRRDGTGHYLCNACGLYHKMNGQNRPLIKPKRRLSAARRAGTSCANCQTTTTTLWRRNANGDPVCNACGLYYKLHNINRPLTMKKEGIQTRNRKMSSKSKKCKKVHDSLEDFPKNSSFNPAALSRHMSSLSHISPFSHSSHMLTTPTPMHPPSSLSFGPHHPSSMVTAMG
Procedure: The IHH cells were transiently transfected with empty vector (for the NT) or human GATA3-expressing plasmid as well as pRL-TK (internal control) and GATA-Luc reporter plasmids. Cells were exposed to DMSO vehicle or compounds for 48 hours. Experiments were done in triplicate.

hSTING and/or mSTING = test: hSTING- or mSTING-dependent ISRE-luc reporter assay in 293T cells; details: 24 hours
Procedure: ISRE-luc (reporter), pRL-TK (internal control) and hSTING- or mSTING-expressing plasmids were transiently transfected into 293T cells. Cells were exposed to DMSO vehicle control or compounds for 24 hours. Experiments were done in triplicate.

Row | ETV1 inhibition in ETV1-dependent reporter assay (ETV1) | ERG inhibition in ERG-dependent reporter assay (ERG) | activation of hSTING in ISRE-luc reporter assay (human STING (hSTING)) | GATA2 inhibition in GATA2-dependent reporter assay (human GATA2) | Compound | also measured
1 | ETV1 inhibitors | – | – | – | Fc1ccc2[nH]cc(Cc3nc(-c4ccccc4)c(-c4ccccc4)o3)c2c1 [Compound 636] | –
2 | ETV1 inhibitors | – | – | – | Cc1[nH]c2ccccc2c1Cc1nc(-c2ccccc2)c(-c2ccccc2)o1 [Compound 637] | –
3 | ETV1 inhibitors | – | – | – | Cn1cc(Cc2nc(-c3ccccc3)c(-c3ccccc3)o2)c2ccccc21 [Compound 638] | –
4 | – | ERG inhibitors | – | – | COc1ccc2[nH]c(C)c(Cc3nc(-c4ccccc4)c(-c4ccccc4)o3)c2c1 [Compound 639] | –
5 | ETV1 inhibitors | – | activate hSTING | – | COc1cccc(-c2nc(CCc3c[nH]c4ccccc34)oc2-c2cccc(OC)c2)c1 [Compound 641] | –
6 | ETV1 inhibitors | ERG inhibitors | – | – | Cc1cccc(-c2nc(Cc3c[nH]c4ccccc34)oc2-c2cccc(C)c2)c1 [Compound 651] | –
7 | – | – | – | GATA2 inhibitors | FC(F)(F)c1cccc(Cc2nc(-c3ccccc3)c(-c3ccccc3)o2)c1 [Compound 687] | activity against GATA3 in GATA3-dependent reporter assay (human GATA3; 10 μM): inactive against GATA3
8 | ETV1 inhibitors | ERG inhibitors | – | – | COc1ccc(-c2nc(Cc3c[nH]c4ccccc34)oc2-c2ccc(O)cc2)cc1 [Compound 697] | –
9 | – | ERG inhibitors | – | – | COc1ccc(-c2oc(Cc3c[nH]c4ccccc34)nc2-c2ccc(O)cc2)cc1 [Compound 699] | –
10 | ETV1 inhibitors | – | – | – | O=C1Nc2ccccc2C1Cc1nc(-c2ccccc2)c(-c2ccccc2)o1 (centres unmarked) [Compound 700] | –
11 | ETV1 inhibitors | – | – | – | c1ccc(-c2nc(Cc3c[nH]c4ccccc34)oc2-c2ccccc2)cc1 [Compound 708] | –
12 | – | – | – | GATA2 inhibitors | c1ccc(-c2nc(CNCCc3c[nH]c4ccccc34)oc2-c2ccccc2)cc1 [Compound 795] | activity against GATA3 in GATA3-dependent reporter assay (human GATA3; 10 μM): inactive against GATA3; activation of hSTING and/or mSTING in ISRE-luc reporter assay (hSTING and/or mSTING): activate hSTING and/or mSTING

Second part, the compound before the results:

Row | Compound | ETV1 inhibition in ETV1-dependent reporter assay (ETV1) | ERG inhibition in ERG-dependent reporter assay (ERG) | activation of hSTING in ISRE-luc reporter assay (human STING (hSTING)) | GATA2 inhibition in GATA2-dependent reporter assay (human GATA2) | also measured
13 | Fc1cccc(-c2nc(Cc3c[nH]c4ccccc34)oc2-c2cccc(F)c2)c1 [Compound 650] | ETV1 inhibitors | – | activate hSTING | GATA2 inhibitors | activity against GATA3 in GATA3-dependent reporter assay (human GATA3; 10 μM): active against GATA3
14 | Fc1ccc(-c2nc(Cc3c[nH]c4ccccc34)oc2-c2ccc(F)cc2)cc1 [Compound 652] | ETV1 inhibitors | – | – | – | –
15 | FC(F)(F)c1ccc(-c2nc(Cc3c[nH]c4ccccc34)oc2-c2ccc(C(F)(F)F)cc2)cc1 [Compound 653] | ETV1 inhibitors | – | activate hSTING | – | –
16 | Cc1ccc(-c2nc(Cc3c[nH]c4ccccc34)oc2-c2ccc(C)cc2)cc1 [Compound 654] | ETV1 inhibitors | – | – | – | –
17 | Fc1ccccc1-c1nc(Cc2c[nH]c3ccccc23)oc1-c1ccccc1F [Compound 655] | ETV1 inhibitors | – | – | – | –
18 | FC(F)(F)c1cccc(-c2nc(Cc3c[nH]c4ccccc34)oc2-c2cccc(C(F)(F)F)c2)c1 [Compound 656] | ETV1 inhibitors | – | activate hSTING | – | –
19 | C(=C\c1c[nH]c2ccccc12)/c1nc(-c2ccccc2)c(-c2ccccc2)o1 [Compound 657] | ETV1 inhibitors | – | – | – | –
20 | FC(F)(F)c1ccccc1-c1nc(Cc2c[nH]c3ccccc23)oc1-c1ccccc1C(F)(F)F [Compound 659] | – | ERG inhibitors | – | – | –
21 | Clc1ccc(-c2nc(Cc3c[nH]c4ccccc34)oc2-c2ccc(Cl)cc2)cc1 [Compound 661] | ETV1 inhibitors | ERG inhibitors | – | – | –
22 | Clc1ccccc1-c1nc(Cc2c[nH]c3ccccc23)oc1-c1ccccc1Cl [Compound 662] | ETV1 inhibitors | ERG inhibitors | – | – | –
23 | Oc1cccc(-c2nc(CCCc3c[nH]c4ccccc34)oc2-c2cccc(O)c2)c1 [Compound 676] | – | – | activate human STING (hSTING) | GATA2 inhibitors | activity against GATA3 in GATA3-dependent reporter assay (human GATA3; 10 μM): inactive against GATA3; activity against GATA3 in GATA3-dependent reporter assay (human GATA3; compounds at 5 μM): inactive against GATA3
24 | Fc1ccccc1-c1nc(CCCc2c[nH]c3ccccc23)oc1-c1ccccc1F [Compound 678] | – | ERG inhibitors | activate hSTING | – | –
25 | C(=C\c1nc(-c2ccccc2)c(-c2ccccc2)o1)/c1ccoc1 [Compound 686] | – | – | – | GATA2 inhibitors | activity against GATA3 in GATA3-dependent reporter assay (human GATA3; 10 μM): active against GATA3
26 | FC(F)(F)c1cccc(/C=C/c2nc(-c3ccccc3)c(-c3ccccc3)o2)c1 [Compound 693] | – | – | activate hSTING | GATA2 inhibitors | activity against GATA3 in GATA3-dependent reporter assay (human GATA3; 10 μM): inactive against GATA3
27 | O=C1Nc2ccccc2C1CCCc1nc(-c2cccc(F)c2)c(-c2cccc(F)c2)o1 (centres unmarked) [Compound 770] | – | – | activate human STING (hSTING) | GATA2 inhibitors | activity against GATA3 in GATA3-dependent reporter assay (human GATA3; compounds at 5 μM): inactive against GATA3
28 | COc1cccc(-c2oc(CCCc3c[nH]c4ccccc34)nc2-c2ccc[nH]2)c1 [Compound 830] | ETV1 inhibitors | – | activate hSTING | GATA2 inhibitors | –
29 | Fc1cccc(-c2oc(Cc3c[nH]c4ccccc34)nc2-c2ccco2)c1 [Compound 838] | ETV1 inhibitors | – | activate hSTING | GATA2 inhibitors | –
30 | C(=N\c1oc(-c2ccccc2)nc1Sc1ccccc1)/c1ccccc1 [Compound V151] | – | ERG inhibitors | – | – | –
